Reference: patent US9688687B2, “Polymorphic forms of icotinib phosphate and uses thereof” (BETTA PHARMACEUTICALS CO., LTD., priority 2013, dated 2017)
Where a name gives a salt, the structure may show the parent alone. Read-outs that look alike come from different tables or passages of the source.

Experiment: Pharmacokinetic study of Icotinib hydrochloride and Polymorph Form II of Icotinib phosphate, oral suspension in fasted SD rats
Type: in vivo
Details: dose equivalent to 50 mg/kg Icotinib, plasma; for AUC(0-t): read-out: AUC(0-24)
Text: Drugs and reagents: The Icotinib hydrochloride used in this study was of Crystalline Form I disclosed by the WO2010/003313. Polymorph Form II of Icotinib phosphate and Icotinib hydrochloride were ground to fine particles. The material content (purity) was not less than 99.0%. Sodium carboxymethyl cellulose was medical supply graded.
Experimental animals: SD rats were divided to an Icotinib hydrochloride group and a Polymorph Form II group, with both groups consisting of half males and half females.
Pharmaceutical preparation: the amount of each compound was weighed and then sodium carboxymethyl cellulose was added to result in the test compound's concentration of 0.5%. The solid mixture was then added to prepare a suspension thereof at a final concentration of […] in water.
Administration and sample collection: each suspension was administered orally to fasted SD rats at a dose equivalent to 50 mg/kg Icotinib in a dose volume of 5 ml/kg. 0.4 ml of blood was collected in EDTA-K pre anticoagulant tubes at time intervals of 0.5, 1, 1.5, 2, 4, 6, 8 and 24 hrs after the administration of the test compound, centrifuged at 3000 rpm for 10 minutes, and 120 μL plasma was collected and kept in cold storage.
Samples were analyzed by high performance liquid chromatography. The chromatographic conditions utilized C18-silane bonded silica as stationary phase, 0.02 mol/L of sodium dihydrogen phosphate in […] (40:60, using sodium hydroxide solution to adjust pH to 5.0) as the mobile phase and a detection wavelength of 334 nm. PK profile comparison of Crystalline Form I of Icotinib Hydrochloride and Polymorph Form II of Icotinib phosphate was summarized in Table 1 and FIG. 5.

[1] = male, SD, rat, po, 50 mg/kg, male SD rats
[2] = female, SD, rat, po, 50 mg/kg, female SD rats

Row | AUC(0-24) (female SD rats) | AUC(0-∞) (female SD rats) | Cmax (female SD rats) | T1/2 (female SD rats) | Tmax (female SD rats) | T1/2 (male SD rats) | Tmax (male SD rats) | AUC(0-inf) [1] | AUC(0-t) [1] | T1/2 (female SD rats, hydrochloride) | AUC(0-inf) [2] | AUC(0-t) [2] | Cmax (female, SD, rat, po, 50 mg/kg, female SD rats, read-out: Cmax) | Tmax (female, SD, rat, po, 50 mg/kg, female SD rats, read-out: Tmax) | AUC(0-24) (male SD rats, hydrochloride) | AUC(0-∞) (male SD rats, hydrochloride) | half-life [1] | Cmax (male, SD, rat, po, 50 mg/kg, male SD rats, read-out: Cmax) | Tmax (male, SD, rat, po, 50 mg/kg, male SD rats, read-out: Tmax) | SMILES
1 | 155.2 ± 20.2 mg·h/L | 156.7 ± 17.8 mg·h/L | 13100 ± 2400 ng/mL | 2.9 ± 0.4 h | 4.7 ± 1.2 h | 2.6 ± 0.2 h | 2.3 ± 1.5 h | 28700 ± 8100 ng·h/mL | 28600 ± 8100 ng·h/mL | – | – | – | – | – | – | – | – | – | – | C#Cc1cccc(Nc2ncnc3cc4c(cc23)OCCOCCOCCO4)c1 [Icotinib Phosphate polymorph form II, Icotinib phosphate]
2 | – | – | – | – | – | – | – | – | – | 6.2 ± 3.5 h | 124000 ± 13000 ng·h/mL | 113000 ± 24000 ng·h/mL | 10200 ± 1900 ng/mL | 3 ± 1.7 h | 19.0 ± 7.1 mg·h/L | 19.1 ± 7.2 mg·h/L | 174 ± 24 min | 3400 ± 400 ng/mL | 2.3 ± 3.2 h | C#Cc1cccc(Nc2ncnc3cc4c(cc23)OCCOCCOCCO4)c1 [Icotinib hydrochloride]
